From patent US9695155B2, “Herbicidal substituted pyrimidinyloxy benzene compounds” (E. I. DU PONT DE NEMOURS AND COMPANY, priority 2013, dated 2017)

Columns and labels:
arrowleaf sida = assay: Test E postemergence; assay type: in vivo, Sida rhombifolia; conditions: Sida rhombifolia, post-emergence, read-out: Plant response rating, Arrowleaf Sida
Excerpt: (§1) Seeds of plant species selected from corn (Zea mays), soybean (Glycine max), velvetleaf (Abutilon theophrasti), lambsquarters (Chenopodium album), wild poinsettia (Euphorbia heterophylla), palmer pigweed (Amaranthus palmeri), waterhemp (common waterhemp, Amaranthus rudis), surinam grass (Brachiaria decumbens), large (Lg) crabgrass (Digitaria sanguinalis), Brazilian crabgrass (Digitaria horizontalis), fall panicum (Panicum dichotomiflorum), giant foxtail (Setaria faberii), green foxtail (Setaria viridis), goosegrass (Eleusine indica), johnsongrass (Sorghum halepense), ragweed (common ragweed, Ambrosia elatior), barnyardgrass (Echinochloa crus-galli), sandbur (southern sandbur, Cenchrus echinatus), arrowleaf sida (Sida rhombifolia), Italian ryegrass (Lolium multiflorum), dayflower (Virginia (VA) dayflower, Commelina virginica), field bindweed (Convolvulus arvensis), morningglory (Ipomoea coccinea), nightshade (eastern black nightshade, Solanum ptycanthum), kochia (Kochia scoparia), yellow nutsedge (Cyperus esculentus), cocklebur (common cocklebur, Xanthium strumarium), smartweed (ladysthumb smartweed, and hairy beggarticks (Bidens pilosa), were planted into a silt loam soil and treated preemergence with test chemicals formulated in a non-phytotoxic solvent mixture which included a surfactant.
(§2) At the same time, plants from these crop and weed species and also horseweed (Canada horseweed, Conyza canadensis), waterhemp_RES1, (ALS & Triazine resistant common waterhemp, Amaranthus rudis), and waterhemp_RES2, (ALS & HPPD resistant common waterhemp, Amaranthus rudis) were planted in pots containing Redi-Earth® planting medium (Scotts Company, 14111 Scottslawn Road, Marysville, Ohio 43041) comprising spaghnum peat moss, vermiculite, wetting agent and starter nutrients were treated with postemergence applications of test chemicals formulated in the same manner. Plants ranged in height from 2 to 18 cm for postemergence treatments (1- to 4-leaf stage). Treated plants and controls were maintained in a greenhouse for 14 to 21 days, after which time all species were compared to controls and visually evaluated. Plant response ratings, summarized in Table E, are based on a scale of 0 to 100 where 0 is no effect and 100 is complete control. A dash (-) response means no test result.

wild buckwheat = assay: Test D postemergence; assay type: in vivo, Polygonum convolvulus; conditions: Fallopia convolvulus, post-emergence, Postemergence, scale 0 to 100 (0 no effect, 100 complete control), read-out: Plant response rating, Buckwheat, Wild
Method in brief: (§3)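 Values are 0–100 visual control ratings (0 none, 100 complete) given 7–21 days after application. Soil for preemergence was silt loam; postemergence plants stood 2–18 cm tall.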

kochia = assay: Test D preemergence; assay type: in vivo, Kochia scoparia; conditions: Bassia scoparia, pre-emergence
Method in brief: as §3

oilseed rape = assay: Test D postemergence; assay type: in vivo, Brassica napus; conditions: Brassica napus, post-emergence
Method in brief: as §3

green foxtail = assay: Test D postemergence; assay type: in vivo, Setaria viridis; conditions: Setaria viridis, post-emergence
Method in brief: as §3

canarygrass [1] = assay: Test D postemergence; assay type: in vivo, Phalaris minor; conditions: Phalaris minor, post-emergence
Method in brief: as §3

pigweed = assay: Test D postemergence; assay type: in vivo, Amaranthus retroflexus; conditions: Amaranthus retroflexus, post-emergence
Method in brief: as §3

corn = assay: Test E postemergence; assay type: in vivo, Zea mays; conditions: Zea mays, post-emergence
Excerpt: as §1, §2

dayflower = assay: Test E postemergence; assay type: in vivo, Commelina virginica; conditions: Commelina virginica, post-emergence, read-out: Plant response rating, Dayflower, VA
Method in brief: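 Response was scored visually on a 0-100 scale (100 = complete control) versus controls after 14 to 21 days in the greenhouse. Test chemicals, formulated with surfactant in a non-phytotoxic solvent mixture, had been applied preemergence to seeds in silt loam soil or postemergence to 1- to 4-leaf plants in potting medium.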

lambsquarters = assay: Test D postemergence; assay type: in vivo, Chenopodium album; conditions: Chenopodium album, post-emergence
Method in brief: as §3

chickweed = assay: Test D postemergence; assay type: in vivo, Stellaria media; conditions: Stellaria media, post-emergence
Method in brief: as §3

canarygrass [2] = assay: Test D preemergence; assay type: in vivo, Phalaris minor; conditions: Phalaris minor, pre-emergence
Method in brief: as §3

[3] = Postemergence, 31 g ai/ha, scale 0 to 100
[4] = Postemergence, 62 g ai/ha, scale 0 to 100
[5] = Postemergence, 125 g ai/ha, scale 0 to 100
[6] = postemergence, 8 g ai/ha, scale 0 to 100, 0 no effect, 100 complete control
[7] = postemergence, 16 g ai/ha, scale 0 to 100, 0 no effect, 100 complete control

Question: For Clc1cnc(Oc2ccccc2-n2cc(Br)cn2)nc1 [Compound 7, 2-[2-(4-bromo-1H-pyrazol-1-yl)phenoxy]-5-chloropyrimidine], which pest or weed control at 31 g/ha (arrowleaf sida; [3]) is on record?
Answer: 80%

Question: And the pest or weed control at 62 g/ha (arrowleaf sida; [4])?
Answer: 90%

Question: What about the pest or weed control at 125 g/ha (arrowleaf sida; [5]) of the same compound?
Answer: 95%

Question: And the pest or weed control at 8 g/ha (arrowleaf sida; [6])?
Answer: 65%

Question: What about the pest or weed control at 16 g/ha (arrowleaf sida; [7]) of the same compound?
Answer: 75%

Question: What about the pest or weed control at 16 g/ha (wild buckwheat; 16 g ai/ha) of the same compound?
Answer: 20%

Question: What about the pest or weed control at 31 g/ha (wild buckwheat; 31 g ai/ha) of the same compound?
Answer: 30%

Question: What about the pest or weed control at 62 g/ha (wild buckwheat; 62 g ai/ha) of the same compound?
Answer: 60%

Question: What about the pest or weed control at 125 g/ha (wild buckwheat; 125 g ai/ha) of the same compound?
Answer: 85%

Question: And the pest or weed control at 250 g/ha (wild buckwheat; 250 g ai/ha)?
Answer: 100%

Question: What about the pest or weed control at 16 g/ha (kochia; 16 g ai/ha, scale 0 (no effect) to 100 (complete control), read-out: Plant response rating, Kochia) of the same compound?
Answer: 0%

Question: What about the pest or weed control at 31 g/ha (kochia; 31 g ai/ha, scale 0-100, read-out: Plant response rating, Kochia) of the same compound?
Answer: 0%

Question: And the pest or weed control at 62 g/ha (kochia; 62 g ai/ha, scale 0-100, read-out: Plant response rating, Kochia)?
Answer: 0%

Question: What about the pest or weed control at 125 g/ha (kochia; 125 g ai/ha, scale 0-100, read-out: Plant response rating, Kochia) of the same compound?
Answer: 0%

Question: And the pest or weed control at 250 g/ha (kochia; 250 g ai/ha, scale 0-100, read-out: Plant response rating, Kochia)?
Answer: 70%

Question: And the plant injury at 16 g/ha (oilseed rape; 16 g ai/ha, scale 0-100, read-out: Plant response rating, Oilseed Rape)?
Answer: 75%

Question: And the plant injury at 31 g/ha (oilseed rape; 31 g ai/ha, scale 0 to 100 (0 no effect, 100 complete control), read-out: Plant response rating, Oilseed Rape)?
Answer: 80%

Question: What about the plant injury at 62 g/ha (oilseed rape; 62 g ai/ha, scale 0 to 100 (0 no effect, 100 complete control), read-out: Plant response rating, Oilseed Rape) of the same compound?
Answer: 95%

Question: And the plant injury at 125 g/ha (oilseed rape; 125 g ai/ha, scale 0 to 100 (0 no effect, 100 complete control), read-out: Plant response rating, Oilseed Rape)?
Answer: 100%

Question: What about the plant injury at 250 g/ha (oilseed rape; 250 g ai/ha, scale 0 to 100 (0 no effect, 100 complete control), read-out: Plant response rating, Oilseed Rape) of the same compound?
Answer: 100%

Question: And the pest or weed control at 16 g/ha (green foxtail; 16 g ai/ha, scale 0-100, read-out: Plant response rating, Foxtail, Green)?
Answer: 0%

Question: And the pest or weed control at 31 g/ha (green foxtail; 31 g ai/ha, scale 0 to 100 (0 no effect, 100 complete control), read-out: Plant response rating, Foxtail, Green)?
Answer: 0%

Question: What about the pest or weed control at 62 g/ha (green foxtail; 62 g ai/ha, scale 0 to 100 (0 no effect, 100 complete control), read-out: Plant response rating, Foxtail, Green) of the same compound?
Answer: 0%

Question: What about the pest or weed control at 125 g/ha (green foxtail; 125 g ai/ha, scale 0 to 100 (0 no effect, 100 complete control), read-out: Plant response rating, Foxtail, Green) of the same compound?
Answer: 10%

Question: What about the pest or weed control at 250 g/ha (green foxtail; 250 g ai/ha, scale 0 to 100 (0 no effect, 100 complete control), read-out: Plant response rating, Foxtail, Green) of the same compound?
Answer: 20%

Question: And the pest or weed control at 16 g/ha (canarygrass [1]; 16 g ai/ha, scale 0-100, read-out: Plant response rating, Canarygrass)?
Answer: 0%

Question: What about the pest or weed control at 31 g/ha (canarygrass [1]; 31 g ai/ha, scale 0 to 100 (0 no effect, 100 complete control), read-out: Plant response rating, Canarygrass) of the same compound?
Answer: 0%

Question: And the pest or weed control at 62 g/ha (canarygrass [1]; 62 g ai/ha, scale 0 to 100 (0 no effect, 100 complete control), read-out: Plant response rating, Canarygrass)?
Answer: 5%

Question: What about the pest or weed control at 125 g/ha (canarygrass [1]; 125 g ai/ha, scale 0 to 100 (0 no effect, 100 complete control), read-out: Plant response rating, Canarygrass) of the same compound?
Answer: 10%

Question: And the pest or weed control at 250 g/ha (canarygrass [1]; 250 g ai/ha, scale 0 to 100 (0 no effect, 100 complete control), read-out: Plant response rating, Canarygrass)?
Answer: 25%

Question: And the pest or weed control at 16 g/ha (pigweed; 16 g ai/ha, scale 0-100, read-out: Plant response rating, Pigweed)?
Answer: 70%

Question: And the pest or weed control at 31 g/ha (pigweed; 31 g ai/ha, scale 0 to 100 (0 no effect, 100 complete control), read-out: Plant response rating, Pigweed)?
Answer: 90%

Question: And the pest or weed control at 62 g/ha (pigweed; 62 g ai/ha, scale 0 to 100 (0 no effect, 100 complete control), read-out: Plant response rating, Pigweed)?
Answer: 100%

Question: And the pest or weed control at 125 g/ha (pigweed; 125 g ai/ha, scale 0 to 100 (0 no effect, 100 complete control), read-out: Plant response rating, Pigweed)?
Answer: 100%

Question: And the pest or weed control at 250 g/ha (pigweed; 250 g ai/ha, scale 0 to 100 (0 no effect, 100 complete control), read-out: Plant response rating, Pigweed)?
Answer: 100%

Question: What about the corn plant response (injury) rating, 0-100 at 31 g/ha (corn; [3]) of the same compound?
Answer: 0%

Question: And the corn plant response (injury) rating, 0-100 at 62 g/ha (corn; [4])?
Answer: 10%

Question: What about the corn plant response (injury) rating, 0-100 at 125 g/ha (corn; [5]) of the same compound?
Answer: 5%

Question: And the corn plant response (injury) rating, 0-100 at 8 g/ha (corn; [6])?
Answer: 0%

Question: And the corn plant response (injury) rating, 0-100 at 16 g/ha (corn; [7])?
Answer: 0%

Question: And the pest or weed control at 31 g/ha (dayflower; [3])?
Answer: 50%

Question: And the pest or weed control at 62 g/ha (dayflower; [4])?
Answer: 70%

Question: And the pest or weed control at 125 g/ha (dayflower; [5])?
Answer: 90%

Question: What about the pest or weed control at 8 g/ha (dayflower; [6]) of the same compound?
Answer: 10%

Question: And the pest or weed control at 16 g/ha (dayflower; [7])?
Answer: 40%

Question: What about the pest or weed control at 16 g/ha (lambsquarters; 16 g ai/ha, scale 0-100, read-out: Plant response rating, Lambsquarters) of the same compound?
Answer: 70%

Question: And the pest or weed control at 31 g/ha (lambsquarters; 31 g ai/ha, scale 0 to 100 (0 no effect, 100 complete control), read-out: Plant response rating, Lambsquarters)?
Answer: 70%

Question: What about the pest or weed control at 62 g/ha (lambsquarters; 62 g ai/ha, scale 0 to 100 (0 no effect, 100 complete control), read-out: Plant response rating, Lambsquarters) of the same compound?
Answer: 80%

Question: What about the pest or weed control at 125 g/ha (lambsquarters; 125 g ai/ha, scale 0 to 100 (0 no effect, 100 complete control), read-out: Plant response rating, Lambsquarters) of the same compound?
Answer: 90%

Question: What about the pest or weed control at 250 g/ha (lambsquarters; 250 g ai/ha, scale 0 to 100 (0 no effect, 100 complete control), read-out: Plant response rating, Lambsquarters) of the same compound?
Answer: 100%

Question: And the pest or weed control at 16 g/ha (chickweed; 16 g ai/ha, scale 0-100, read-out: Plant response rating, Chickweed)?
Answer: 10%

Question: And the pest or weed control at 31 g/ha (chickweed; 31 g ai/ha, scale 0 to 100 (0 no effect, 100 complete control), read-out: Plant response rating, Chickweed)?
Answer: 10%

Question: And the pest or weed control at 62 g/ha (chickweed; 62 g ai/ha, scale 0 to 100 (0 no effect, 100 complete control), read-out: Plant response rating, Chickweed)?
Answer: 20%

Question: What about the pest or weed control at 125 g/ha (chickweed; 125 g ai/ha, scale 0 to 100 (0 no effect, 100 complete control), read-out: Plant response rating, Chickweed) of the same compound?
Answer: 60%

Question: What about the pest or weed control at 250 g/ha (chickweed; 250 g ai/ha, scale 0 to 100 (0 no effect, 100 complete control), read-out: Plant response rating, Chickweed) of the same compound?
Answer: 80%

Question: And the pest or weed control at 16 g/ha (canarygrass [2]; 16 g ai/ha, scale 0 (no effect) to 100 (complete control), read-out: Plant response rating, Canarygrass)?
Answer: 0%

Question: And the pest or weed control at 31 g/ha (canarygrass [2]; 31 g ai/ha, scale 0-100, read-out: Plant response rating, Canarygrass)?
Answer: 0%

Question: And the pest or weed control at 62 g/ha (canarygrass [2]; 62 g ai/ha, scale 0-100, read-out: Plant response rating, Canarygrass)?
Answer: 0%

Question: What about the pest or weed control at 125 g/ha (canarygrass [2]; 125 g ai/ha, scale 0-100, read-out: Plant response rating, Canarygrass) of the same compound?
Answer: 0%

Question: What about the pest or weed control at 250 g/ha (canarygrass [2]; 250 g ai/ha, scale 0-100, read-out: Plant response rating, Canarygrass) of the same compound?
Answer: 25%
